This passage reports melting point results from a melting point compilation (Tetko et al.; mined from patent text by program, amines drawn as free bases though some values may be those of a salt).

Each structure is given as a SMILES string. Some results are limits rather than exact numbers.

`Cc1nc2cccc(NC(=O)CCl)c2c(=O)n1C1CCC(=O)NC1=O` (configuration not stated) yielded a melting point of 275 to 277 °C.

`COc1ccccc1CN[C@H]1CCCN(CC=Cc2ccccc2)[C@H]1c1ccccc1` (relative stereo) had a melting point of 54 to 58 °C.

Consider `FC(F)(F)c1ccc2sc(C3=CCN(Cc4ccccc4)CC3)nc2c1`, for which the melting point is 124 to 125 °C.

In turn, `CCCc1c(OCCCSc2nnc(SCC(=O)N(C)O)s2)ccc(C(C)=O)c1O` had a melting point of 97 to 99 °C.

For the molecule `CN(C)C(=O)Cn1c(-c2cccc(C(F)(F)F)c2)nc2cccnc21`, the melting point fell in the range of 136 to 138 °C.

`Cc1cc(-c2noc(N(C)C)n2)ccc1-c1ccc(C(=O)N2CCCc3cc4c(cc32)C2(CCN(C)CC2)CO4)cc1` returned a melting point of 118 to 120 °C.

Turning to `Cc1nc(N2CCN(Cc3ccc(C(F)(F)F)nc3)C2=O)sc1C(N)=O`, the melting point is 225 to 228 °C.

The molecule `O=C(O)c1cn(C2CC2)c2c(F)c(N3CC(O)C3)c(F)cc2c1=O` yielded a melting point of 286 to 288 °C.

Take `CCOC(=O)[C@@](CC)(CCCNCCc1c[nH]c2ccc(F)cc12)C(OCC)OCC`: the melting point stood at 100 °C.

As for `CCOC=CC(=O)Nc1ccc(-n2cnc(C)c2)cc1`, the melting point is 214 to 216 °C.

Turning to `CC(C)c1cccc(C(C)C)c1NC(=O)NCCN1CCN(CCSc2nc3ccccc3s2)CC1`, the melting point was in the range of 147 to 149 °C.

In turn, `COCOc1c(OC)cc(C=O)cc1OC` yielded a melting point of 52 to 53 °C.

In turn, `CC(C)c1ccc(-c2nc(=O)n(Cc3ccccc3)c3ccc(OCC#N)cc23)cc1` registered a melting point of 139 to 141 °C.

`NS(=O)(=O)c1cc(C(=O)O)cc(SCc2ccccc2)c1Oc1ccccc1` came in with a melting point of 235 to 236 °C.

Take `O=[N+]([O-])c1ccc(Oc2ccccc2Oc2ccc([N+](=O)[O-])c(O)c2)cc1O`: the melting point was in the range of 178 to 180 °C.

`O=C(NCCCO)C1=C(C(=O)Nc2ccc(Cl)cc2F)CCCC1` displayed a melting point of 138 °C.

Turning to `CC(C)Cc1nn(C)c(=O)c2cc(Cc3cccnc3)sc12`, the melting point was 118 to 119 °C.

As to `O=C(O)Cc1cc(=O)n(Cc2ccc(Cl)cc2)c2ccccc12`, the melting point was in the range of 208 to 209 °C.

For the molecule `CCOC(=S)c1csc2nc(Cc3ccccc3)cn12`, the melting point lay within 83 to 84 °C.

As to `CCOC(=O)c1cccc(Nc2nccc(-c3ccnc(Cl)c3)n2)c1`, the melting point lay within 149 to 150 °C.

`O=C(O)c1ccc2c(c1)S(=O)(=O)c1ccccc1S2` showed a melting point of 297 to 304 °C.

In turn, `CCN(CC)C(=O)/C=C(\C)c1ccc(OCc2c(F)cccc2F)c(CC(=O)O)c1` returned a melting point of 167 to 168 °C.

On to `C[N+](C)([O-])CC#CC1=Cc2ccccc2Sc2ccc(Cl)cc21`, for which the melting point lay within 68 to 69 °C.

For the molecule `CC(C)[C@](C)(S)C(=O)O`, the melting point was in the range of 78 to 80 °C.

Take `CN(C)c1nn(C(=O)NC(C)(C)CF)c(=O)n1NCc1cccc(Cl)c1`: the melting point was determined as 158 °C.

On to `C#CCn1ccc(C(=O)OC)c1C=O`, for which the melting point stood at 76 °C.

`COc1cc(C2=CCCCC2)c(Cl)cc1C(=O)N1Cc2cccn2Cc2ccccc21`: the melting point was 92 to 98 °C.

For the molecule `COC(=O)c1ccccc1S(=O)(=O)NC(=O)c1cc(C)on1`, the melting point came out at 101 °C.

The molecule `O=C(Sc1ccccn1)c1ccncc1` registered a melting point of 115 °C.

Consider `C=C(C)C1(CC(C)C)CCN(C(Cc2ccccc2)C(=O)NC)C1=O` (configuration not stated), for which the melting point is 91 to 92 °C.

In the case of `Clc1cccc(Oc2ncccc2Br)c1`, the melting point was in the range of 88 to 90 °C.

On to `COc1ccc(C2C(C(=O)/C=C/c3ccc(O)c(OC)c3)C(=O)CC(c3ccc(O)c(OC)c3)C2[N+](=O)[O-])cc1` (configuration not stated), for which the melting point lay in the range of 83 to 85 °C.

Turning to `O=C(Nc1ccc2cc(CN3CCC(CO)CC3)cnc2c1)c1ccc(-c2ccc(F)cc2)cc1`, the melting point was in the range of 191 to 195 °C.

For `Cc1cc(C(=O)Nc2cccc(C3CN4CCSC4=N3)c2)n(C)n1` (configuration not stated), the melting point lay in the range of 163 to 164 °C.

As for `O=CNc1ccccc1Nc1ccc(C(=O)c2ccccc2)cc1`, the melting point was in the range of 122 to 124 °C.

`COc1cc(C(=O)NS(=O)(=O)c2ccccc2C)ccc1Cn1ncc2ccc(NC(=O)CC3CCCC3)cc21` yielded a melting point of 184 to 185 °C.

Regarding `Nc1nc2c(sc(=O)n2C2OC(CO)C(O)C2F)c(=O)[nH]1` (configuration not stated), the melting point lay within 232 to 234 °C.

Molecule `O=C1OC2(CCc3ccccc32)c2ccccc21` (configuration not stated) had a melting point of 138 to 139 °C.

Molecule `CCOC(=O)[C@@H](N)Cc1ccc([N+](=O)[O-])cc1I` displayed a melting point of 33 to 34 °C.

`Cc1cnc2c(=O)[nH]c3ccc(Cl)cc3n12` came in with a melting point greater than 300 °C.

As for `COCCOCOc1ccc(-c2nnc(S)o2)cc1OCOCCOC`, the melting point turned out to be 84 °C.

`CCCCCC(CC(=O)Nc1cc(C(N)=O)ccc1C(C)(C)C)c1ccc(OCCCNS(C)(=O)=O)cc1OC` (configuration not stated) registered a melting point of 77 to 79 °C.

`CN1CC(CO)CC2c3cccc4c3C(CN4)CC21` (configuration not stated) gave a melting point of 226 to 228 °C.

In turn, `COC(=O)c1cccc(OC)c1I` registered a melting point of 58 to 61 °C.

Molecule `Cc1cc2c3c(ccc2cc1C=O)OC(=O)C3(C)C` yielded a melting point of 193 to 195 °C.

The molecule `OC1CCN(C(c2ccccc2)(c2ccccc2)c2ccccc2)CC1` had a melting point of 157 to 158 °C.

For `O=C(C=CCl)CCCN1C(=O)c2ccccc2C1=O`, the melting point amounted to 92 °C.

As to `CC(C)Cn1c(CNC(=O)OC(C)(C)C)c(-c2ccccc2)c2cc(CO)ccc2c1=O`, the melting point fell in the range of 169 to 170 °C.

For `CCOC(=O)c1ccc(-c2ccc3c(c2)C(Nc2ccc(Cl)cc2)CC(C)N3C(C)=O)cc1` (configuration not stated), the melting point came out at 114 °C.

Consider `COc1ccc(CCOc2ccc(NC(=O)N(C)OC)cc2)cc1`, for which the melting point was in the range of 100 to 101 °C.

Consider `CNc1cc(C(C)=O)ccc1OCCCN1CCC(c2noc3cc(F)ccc23)CC1`, for which the melting point was 151 to 153 °C.

Take `CC(C)C(=NSN(C)C(=O)Oc1cccc2c1OC(C)(C)C2)Sc1ccccc1`: the melting point is 104 to 106 °C.

Turning to `COc1ccc2c(c1)C(=O)c1c-2n(CCCBr)c(=O)c2cc([N+](=O)[O-])ccc12`, the melting point is 282 to 284 °C.

On to `COc1ccccc1N1CCN(C(=O)[C@@H](Cc2ccccc2)NC(=O)OC(C)(C)C)CC1`, for which the melting point was 95 to 97 °C.

`Oc1c(-c2ccccc2)cc(C2c3ccccc3-c3ccccc32)cc1-c1ccccc1` gave a melting point of 144 to 145 °C.

In the case of `Oc1ccc(CCCCCCc2ccc(O)cc2)cc1`, the melting point was in the range of 143 to 144 °C.

As for `CC(C)(C)Nc1c(NCc2cc3cc([N+](=O)[O-])ccc3o2)c(=O)c1=O`, the melting point was greater than 300 °C.

`O=C(c1cc(Cl)cc(Cl)c1)N1CCc2cc(S(=O)(=O)N3CC(c4ccccc4)NC3=O)ccc21` (configuration not stated) displayed a melting point of 236 °C.

`CC(=O)N[C@@H](Cc1ccc(-c2c3ccccc3cc3ccccc23)cc1)C(=O)O`: the melting point stood at 76 °C.

Molecule `COC(=O)c1ccc(O)c(N)c1C(=O)OC` returned a melting point of 112 to 113 °C.

In turn, `COc1ccc(-c2cccnc2)cc1` gave a melting point of 62 to 63 °C.

On to `CCC(=O)Nc1ccc(C)c(O)c1C`, for which the melting point is 140 °C.

In the case of `Clc1ccc(N2CCN(Cc3ccc4[nH]ccc4c3)CC2)cc1`, the melting point was 175 to 176 °C.

Take `COc1cc(N2CCN([C@H]3CC[C@H](c4cn(C)c5ccc(C#N)cc54)CC3)CC2)c2nccc(C)c2c1`: the melting point was in the range of 230 to 232 °C.

`C=Cc1ccc(-c2ccc3c4ccc5c6c(ccc(c7cccc2c73)c64)C(=O)N(c2c(C(C)C)cccc2C(C)C)C5=O)cc1` displayed a melting point greater than 300 °C.

In the case of `CCCn1c(=O)c2[nH]c(/C=C/c3cc(C)c(OC)cc3C)nc2n(CCC)c1=O`, the melting point was in the range of 268 to 269 °C.

`CCOC(=O)c1cc2c(cn1)[nH]c1c(Br)cc([N+](=O)[O-])cc12` displayed a melting point of 291 to 292 °C.

In the case of `Cc1cc(Cl)cc(C)c1NC(=O)N(CCC(C)(C)C)Cc1ccc(CC(C)(C)C)cc1`, the melting point was in the range of 148 to 150 °C.

For the molecule `CN1C(=O)CC[C@]2(C)c3ccc(Sc4cnccn4)cc3CC[C@@H]12`, the melting point lay in the range of 94 to 95 °C.

`CNN(C)C(=S)Nc1ccc(Cl)cc1`: the melting point fell in the range of 103 to 104 °C.

`CC(C)(C)OC(=O)n1cc(I)c2ccncc21` showed a melting point of 68 to 72 °C.

Consider `Cn1c(=O)cc(-c2cccc(Cl)c2)c2cc(C(C)(c3ccc(Cl)cc3)n3ccnc3)ccc21` (configuration not stated), for which the melting point was 120 °C.

`N#Cc1cc2c(c(C(=O)O)c1)NCCS2` displayed a melting point of 241 to 242 °C.

Regarding `CCCCCCCCCCCCCCSc1ccc(Cl)c(N)c1`, the melting point lay within 60.5 to 61.5 °C.

`COc1ccc(S(=O)(=O)n2ccc3ccnc(-c4ccc(Cl)cc4)c32)cc1` had a melting point of 126 to 128 °C.

The molecule `O=C(CBr)c1cc2c(Cl)cccc2s1` had a melting point of 116 to 118 °C.

Take `N#Cc1cc(C(F)(F)F)ccc1Nc1ccccc1[N+](=O)[O-]`: the melting point was in the range of 160 to 161 °C.

In turn, `C=CCOc1ccc(C[C@H](NC(C)=O)C(=O)OCC)cc1` displayed a melting point of 69 to 70 °C.

As to `CC1(C)CC(N(CCO)c2c([O-])[c+](N(CCO)C3CC(C)(C)NC(C)(C)C3)[c+]2[O-])CC(C)(C)N1`, the melting point lay within 309 to 311 °C.

Consider `CN1CCC23CCCCC2C1Cc1ccc(Oc2nc(-c4ccccc4)nc4ccccc24)cc13` (single isomer, unassigned; (+)), for which the melting point was in the range of 138 to 139 °C.

With `O=C(Nc1ccc(C(=O)N2Cc3ccccc3Cc3ccccc32)cc1)c1ccc(C(F)(F)F)cc1`, the melting point was in the range of 205 to 207 °C.

For the molecule `CCc1nc2c(C)c(C#N)c(C)nc2n1-c1ccc(CCNC(=O)NS(=O)(=O)c2ccc(C)cc2)cc1`, the melting point was 133 °C.

Molecule `Cc1nn(-c2cc(OC(C)C)c(Cl)cc2F)c(=O)[nH]1` registered a melting point of 120 to 124 °C.

As to `CCc1nc2c(Br)cccc2cc1C`, the melting point was 54 °C.

In the case of `Nc1ccc2ccccc2c1S`, the melting point was in the range of 108 to 110 °C.

Take `COc1cc(-n2nc3ccc(Cl)cn3c2=O)c(F)cc1Cl`: the melting point fell in the range of 140 to 142 °C.

With `CCOCCn1c(N2CCCN(CCC3(c4ccncc4)CCN(C(=O)c4cc(OC)c(OC)c(OC)c4)C3)CC2)nc2ccccc21` (configuration not stated), the melting point is 85 to 95 °C.
